Test system: NHBE cells
Assay: Biolog metabolic array: substrate use by NHBE cells with or without CA09 infection
Type: cell-based, human
[1] = Control (uninfected) NHBE cells
[2] = Virus (CA09-infected NHBE cells, MOI 1)
[3] = Virus: CA09-infected NHBE cells, MOI 1, Biolog PMM2

C[C@@H](O)[C@H](O)[C@H](O)[C@@H](O)C=O [D-Fucose]
590 nm absorbance normalized to zero hour (substrate use), 0 hr [1]: 1.00 | 590 nm absorbance normalized to zero hour (substrate use), 1 hr [1]: 1.61 | 590 nm absorbance normalized to zero hour (substrate use), 2 hr [1]: 1.96 | 590 nm absorbance normalized to zero hour (substrate use), 3 hr [1]: 2.02 | 590 nm absorbance normalized to zero hour (substrate use), 4 hr [1]: 2.15 | 590 nm absorbance normalized to zero hour (substrate use), 6 hr [1]: 2.11 | 590 nm absorbance normalized to zero hour (substrate use), 8 hr [1]: 2.49 | 590 nm absorbance normalized to zero hour (substrate use), 9 hr [1]: 2.69 | 590 nm absorbance normalized to zero hour (substrate use), 10 hr [1]: 2.78 | 590 nm absorbance normalized to zero hour (substrate use), 11 hr [1]: 2.97 | Substrate use, 590 nm absorbance normalized to zero hour, 0 hr (Control (uninfected) NHBE cells, Biolog PMM2, 0 hr): 1.00 | Substrate use, 590 nm absorbance normalized to zero hour, 1 hr (Control (uninfected) NHBE cells, Biolog PMM2, 1 hr): 1.61 | Substrate use, 590 nm absorbance normalized to zero hour, 5 hr (Control (uninfected) NHBE cells, Biolog PMM2, 5 hr): 2.65 | Substrate use, 590 nm absorbance normalized to zero hour, 7 hr (Control (uninfected) NHBE cells, Biolog PMM2, 7 hr): 2.19 | 590 nm absorbance normalized to zero hour (substrate use), 0 hr [2]: 1.00 | 590 nm absorbance normalized to zero hour (substrate use), 1 hr [2]: 0.66 | 590 nm absorbance normalized to zero hour (substrate use), 2 hr [2]: 0.33 | 590 nm absorbance normalized to zero hour (substrate use), 3 hr [2]: 0.67 | 590 nm absorbance normalized to zero hour (substrate use), 4 hr [2]: 0.64 | 590 nm absorbance normalized to zero hour (substrate use), 5 hr [2]: 0.62 | 590 nm absorbance normalized to zero hour (substrate use), 6 hr [2]: 0.65 | 590 nm absorbance normalized to zero hour (substrate use), 7 hr [2]: 0.65 | 590 nm absorbance normalized to zero hour (substrate use), 8 hr [2]: 0.60 | 590 nm absorbance normalized to zero hour (substrate use), 9 hr [2]: 0.52 | 590 nm absorbance normalized to zero hour (substrate use), 10 hr [2]: 0.57 | 590 nm absorbance normalized to zero hour (substrate use), 11 hr [2]: 0.61 | 590 nm absorbance normalized to zero hour (substrate use), 0 hr [3]: 1.00 | 590 nm absorbance normalized to zero hour (substrate use), 1 hr [3]: 0.66 | 590 nm absorbance normalized to zero hour (substrate use), 2 hr [3]: 0.33 | 590 nm absorbance normalized to zero hour (substrate use), 3 hr [3]: 0.67 | 590 nm absorbance normalized to zero hour (substrate use), 4 hr [3]: 0.64 | 590 nm absorbance normalized to zero hour (substrate use), 5 hr [3]: 0.62 | 590 nm absorbance normalized to zero hour (substrate use), 6 hr [3]: 0.65 | 590 nm absorbance normalized to zero hour (substrate use), 7 hr [3]: 0.65 | 590 nm absorbance normalized to zero hour (substrate use), 8 hr [3]: 0.60 | 590 nm absorbance normalized to zero hour (substrate use), 9 hr [3]: 0.52 | 590 nm absorbance normalized to zero hour (substrate use), 10 hr [3]: 0.57 | 590 nm absorbance normalized to zero hour (substrate use), 11 hr [3]: 0.61
